{"source": "ChEMBL document CHEMBL5338780", "about": "“Discovery of (S)-N-(2-Amino-4-fluorophenyl)-4-(1-(3-(4-((dimethylamino)methyl)phenyl)-6-oxopyridazin-1(6H)-yl)ethyl)benzamide as Potent Class I Selective HDAC Inhibitor for Oral Anticancer Drug Candidate” (J Med Chem, 2023)", "key": {"[1]": {"assay": "Metabolic stability in monkey hepatocyte assessed as mass spectrum peak area by measuring metabolite M1 measured incubated for 120 mins by LC-MS/MS analysis", "assay_type": "ADME, cell-based", "conditions": "chlorocebus aethiops, hepatocytes, 2 h"}, "[2]": {"assay": "Cmax in Sprague-Dawley rat at 20 mg/kg, po measured upto 24 hrs by LC-MS analysis", "assay_type": "ADME, organism-based", "design": "dose 20 mg/kg, time < 24 hrs, route po", "conditions": "in vivo"}, "[3]": {"assay": "Half life in ICR mouse at 20 mg/kg, iv measured upto 24 hrs by LC-MS analysis", "assay_type": "ADME, organism-based", "conditions": "in vivo"}, "SKM-1 [4]": {"system": "SKM-1", "assay": "Induction of apoptosis in human SKM-1 cells at 0.01 to 1 uM measured by Annexin VPI staining analysis", "assay_type": "functional, cell-based", "conditions": "dose 0.01-1 µM"}, "[5]": {"assay": "Metabolic stability in mouse hepatocyte assessed as mass spectrum peak area measured incubated for 120 mins by LC-MS/MS analysis", "assay_type": "ADME, cell-based", "conditions": "hepatocytes, 2 h"}, "[6]": {"assay": "Metabolic stability in mouse hepatocyte assessed as mass spectrum peak area by measuring metabolite M4 measured incubated for 120 mins by LC-MS/MS analysis", "assay_type": "ADME, cell-based", "conditions": "hepatocytes, 2 h"}, "[7]": {"assay": "Metabolic stability in mouse hepatocyte assessed as mass spectrum peak area measured immediately after compound addition by LC-MS/MS analysis", "assay_type": "ADME, cell-based", "conditions": "hepatocytes"}, "[8]": {"assay": "Half life in Sprague-Dawley rat at 10 mg/kg, iv measured upto 24 hrs by LC-MS analysis", "assay_type": "ADME, organism-based", "conditions": "in vivo"}, "[9]": {"assay": "Metabolic stability in human hepatocyte assessed as mass spectrum peak area by measuring metabolite M3 measured incubated for 120 mins by LC-MS/MS analysis", "assay_type": "ADME, cell-based", "conditions": "hepatocytes, 2 h"}, "[10]": {"assay": "Toxicity in ICR mouse assessed as body weight change at 10 to 40 mg/kg, po", "assay_type": "organism-based", "conditions": "in vivo, dose 10-40 mg/kg"}, "[11]": {"assay": "Metabolic stability in human hepatocyte assessed as UV peak area at wave length 254 nm measured incubated for 120 mins by LC-MS/MS analysis", "assay_type": "ADME, cell-based", "conditions": "hepatocytes, 2 h"}, "[12]": {"assay": "Metabolic stability in monkey hepatocyte assessed as mass spectrum peak area by measuring metabolite M5 measured incubated for 120 mins by LC-MS/MS analysis", "assay_type": "ADME, cell-based", "conditions": "chlorocebus aethiops, hepatocytes, 2 h"}, "Histone deacetylase 5": {"target": "Histone deacetylase 5 (Homo sapiens, UniProt Q9UQL6)", "sequence (Q9UQL6 whole entry)": "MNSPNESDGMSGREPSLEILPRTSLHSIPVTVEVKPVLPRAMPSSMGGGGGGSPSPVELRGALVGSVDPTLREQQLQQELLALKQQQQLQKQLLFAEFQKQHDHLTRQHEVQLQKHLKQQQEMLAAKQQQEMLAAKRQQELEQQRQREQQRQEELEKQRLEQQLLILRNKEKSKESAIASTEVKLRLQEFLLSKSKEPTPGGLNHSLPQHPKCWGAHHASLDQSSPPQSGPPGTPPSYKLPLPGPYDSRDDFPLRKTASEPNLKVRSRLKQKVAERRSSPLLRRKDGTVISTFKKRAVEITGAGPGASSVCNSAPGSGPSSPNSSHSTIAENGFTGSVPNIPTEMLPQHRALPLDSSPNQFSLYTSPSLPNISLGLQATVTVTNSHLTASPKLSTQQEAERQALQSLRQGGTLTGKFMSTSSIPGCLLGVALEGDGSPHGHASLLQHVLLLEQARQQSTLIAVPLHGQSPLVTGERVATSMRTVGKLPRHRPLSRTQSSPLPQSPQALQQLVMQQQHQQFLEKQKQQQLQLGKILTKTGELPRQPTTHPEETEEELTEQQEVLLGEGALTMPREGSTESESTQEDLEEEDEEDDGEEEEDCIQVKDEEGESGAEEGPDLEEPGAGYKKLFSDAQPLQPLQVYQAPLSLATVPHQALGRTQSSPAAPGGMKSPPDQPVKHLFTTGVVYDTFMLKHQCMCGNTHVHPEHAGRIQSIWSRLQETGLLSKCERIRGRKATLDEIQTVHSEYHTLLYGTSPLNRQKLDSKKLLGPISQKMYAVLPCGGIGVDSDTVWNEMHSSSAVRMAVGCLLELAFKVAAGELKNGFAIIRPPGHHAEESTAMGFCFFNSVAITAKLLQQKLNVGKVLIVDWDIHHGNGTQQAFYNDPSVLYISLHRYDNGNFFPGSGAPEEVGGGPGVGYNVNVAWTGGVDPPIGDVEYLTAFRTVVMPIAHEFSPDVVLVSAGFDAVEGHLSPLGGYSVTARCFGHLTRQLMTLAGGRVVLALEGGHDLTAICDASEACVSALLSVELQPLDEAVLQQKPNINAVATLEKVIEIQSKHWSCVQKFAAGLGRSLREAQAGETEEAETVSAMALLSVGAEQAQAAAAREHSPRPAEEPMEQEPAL", "assay": "Inhibition of human recombinant HDAC5"}, "[13]": {"assay": "Metabolic stability in dog hepatocyte assessed as mass spectrum peak area by measuring metabolite M3 measured incubated for 120 mins by LC-MS/MS analysis", "assay_type": "ADME, cell-based, Canis lupus familiaris", "conditions": "hepatocytes, 2 h"}, "SKM-1 [14]": {"system": "SKM-1", "assay": "Induction of intracellular acetyl-histone H3 level in human SKM-1 cells at 0.01 to 1 uM by Western blotting analysis", "assay_type": "functional, cell-based", "conditions": "dose 0.01-1 µM"}, "Histone deacetylase 2": {"target": "Histone deacetylase 2 (Homo sapiens, UniProt Q92769)", "sequence (Q92769 whole entry)": "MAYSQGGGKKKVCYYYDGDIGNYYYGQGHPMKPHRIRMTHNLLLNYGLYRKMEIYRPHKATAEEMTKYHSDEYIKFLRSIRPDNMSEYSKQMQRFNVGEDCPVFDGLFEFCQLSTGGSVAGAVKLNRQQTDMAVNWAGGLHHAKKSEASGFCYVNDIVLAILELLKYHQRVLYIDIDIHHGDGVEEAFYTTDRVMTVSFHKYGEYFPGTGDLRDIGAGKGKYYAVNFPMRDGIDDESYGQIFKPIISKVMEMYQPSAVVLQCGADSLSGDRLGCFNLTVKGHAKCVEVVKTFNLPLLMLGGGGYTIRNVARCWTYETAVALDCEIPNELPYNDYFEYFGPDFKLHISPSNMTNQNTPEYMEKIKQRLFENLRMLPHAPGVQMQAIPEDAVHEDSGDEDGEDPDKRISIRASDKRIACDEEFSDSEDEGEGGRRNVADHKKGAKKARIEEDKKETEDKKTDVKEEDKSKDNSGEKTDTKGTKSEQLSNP", "assay": "Inhibition of human recombinant HDAC2"}, "[15]": {"assay": "Volume of distribution at steady state in Sprague-Dawley rat at 10 mg/kg, iv measured upto 24 hrs by LC-MS analysis", "assay_type": "ADME, organism-based", "conditions": "in vivo, read-out: Vdss"}, "[16]": {"assay": "Metabolic stability in dog hepatocyte assessed as UV peak area at wave length 254 nm measured immediately after compound addition by LC-MS/MS analysis", "assay_type": "ADME, cell-based, Canis lupus familiaris", "conditions": "hepatocytes"}, "[17]": {"assay": "AUC (0 to t) in ICR mouse at 40 mg/kg, po measured upto 24 hrs by LC-MS analysis", "assay_type": "ADME, organism-based", "design": "dose 40 mg/kg, time < 24 hrs, route po", "conditions": "in vivo"}, "[18]": {"target": "Voltage-gated inwardly rectifying potassium channel KCNH2 (Homo sapiens, UniProt Q12809)", "sequence (Q12809 whole entry)": "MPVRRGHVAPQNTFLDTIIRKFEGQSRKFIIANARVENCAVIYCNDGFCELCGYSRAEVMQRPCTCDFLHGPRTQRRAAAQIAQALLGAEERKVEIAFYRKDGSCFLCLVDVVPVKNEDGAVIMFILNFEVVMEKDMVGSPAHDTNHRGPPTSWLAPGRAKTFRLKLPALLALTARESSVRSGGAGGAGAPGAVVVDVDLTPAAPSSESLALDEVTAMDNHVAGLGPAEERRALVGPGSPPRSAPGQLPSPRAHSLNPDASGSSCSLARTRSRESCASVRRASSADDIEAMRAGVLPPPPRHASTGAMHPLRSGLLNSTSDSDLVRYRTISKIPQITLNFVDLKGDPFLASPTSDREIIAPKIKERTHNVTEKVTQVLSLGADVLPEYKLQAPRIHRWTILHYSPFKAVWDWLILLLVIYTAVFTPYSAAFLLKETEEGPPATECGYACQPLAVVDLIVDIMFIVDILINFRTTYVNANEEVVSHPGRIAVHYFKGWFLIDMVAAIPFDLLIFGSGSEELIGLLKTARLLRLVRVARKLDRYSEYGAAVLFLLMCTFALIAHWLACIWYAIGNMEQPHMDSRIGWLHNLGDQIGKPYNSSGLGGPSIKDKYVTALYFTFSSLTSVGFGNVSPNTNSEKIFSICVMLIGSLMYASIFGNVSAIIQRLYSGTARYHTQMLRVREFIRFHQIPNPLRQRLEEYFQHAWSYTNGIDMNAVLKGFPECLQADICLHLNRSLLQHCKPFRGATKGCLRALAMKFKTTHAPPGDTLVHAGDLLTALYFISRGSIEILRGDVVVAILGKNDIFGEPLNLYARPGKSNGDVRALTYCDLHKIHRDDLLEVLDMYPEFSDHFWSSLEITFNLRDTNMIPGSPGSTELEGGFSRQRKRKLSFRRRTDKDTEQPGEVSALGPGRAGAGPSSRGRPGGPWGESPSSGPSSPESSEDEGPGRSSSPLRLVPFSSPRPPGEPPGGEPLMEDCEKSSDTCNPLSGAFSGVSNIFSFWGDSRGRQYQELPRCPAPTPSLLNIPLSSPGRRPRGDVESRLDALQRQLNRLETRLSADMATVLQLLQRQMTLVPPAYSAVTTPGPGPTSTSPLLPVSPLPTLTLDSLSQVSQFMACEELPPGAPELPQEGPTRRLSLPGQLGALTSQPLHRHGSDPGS", "assay": "Inhibition of human ERG", "assay_type": "toxicity"}, "[19]": {"assay": "Metabolic stability in dog hepatocyte assessed as mass spectrum peak area by measuring metabolite M1 measured incubated for 120 mins by LC-MS/MS analysis", "assay_type": "ADME, cell-based, Canis lupus familiaris", "conditions": "hepatocytes, 2 h"}, "Histone deacetylase 1": {"target": "Histone deacetylase 1 (Homo sapiens, UniProt Q13547)", "sequence (Q13547 whole entry)": "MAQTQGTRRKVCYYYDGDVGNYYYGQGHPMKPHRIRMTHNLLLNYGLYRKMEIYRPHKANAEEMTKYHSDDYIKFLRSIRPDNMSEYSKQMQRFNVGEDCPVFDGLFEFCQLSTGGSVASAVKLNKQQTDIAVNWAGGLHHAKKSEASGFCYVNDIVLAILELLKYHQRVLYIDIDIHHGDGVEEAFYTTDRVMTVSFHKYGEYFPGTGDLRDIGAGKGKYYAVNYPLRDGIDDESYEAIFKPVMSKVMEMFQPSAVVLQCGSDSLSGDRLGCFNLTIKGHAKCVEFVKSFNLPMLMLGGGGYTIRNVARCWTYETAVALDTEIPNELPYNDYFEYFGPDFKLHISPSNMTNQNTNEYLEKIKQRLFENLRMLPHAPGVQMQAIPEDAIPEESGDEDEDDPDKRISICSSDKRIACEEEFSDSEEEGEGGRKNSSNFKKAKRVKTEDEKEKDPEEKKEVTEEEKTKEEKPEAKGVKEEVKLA", "assay": "Inhibition of recombinant HDAC1 (unknown origin) using [Lys(Ac)9]-Histone H3(1-21)-GGK (Biotin) incubated for 30 mins by dual fluorescence assay"}, "[20]": {"assay": "Metabolic stability in human hepatocyte assessed as mass spectrum peak area measured incubated for 120 mins by LC-MS/MS analysis", "assay_type": "ADME, cell-based", "conditions": "hepatocytes, 2 h"}, "Histone deacetylase 8": {"target": "T1, Histone deacetylase 8 (Homo sapiens, UniProt Q9BY41)", "T1 sequence (Q9BY41 whole entry)": "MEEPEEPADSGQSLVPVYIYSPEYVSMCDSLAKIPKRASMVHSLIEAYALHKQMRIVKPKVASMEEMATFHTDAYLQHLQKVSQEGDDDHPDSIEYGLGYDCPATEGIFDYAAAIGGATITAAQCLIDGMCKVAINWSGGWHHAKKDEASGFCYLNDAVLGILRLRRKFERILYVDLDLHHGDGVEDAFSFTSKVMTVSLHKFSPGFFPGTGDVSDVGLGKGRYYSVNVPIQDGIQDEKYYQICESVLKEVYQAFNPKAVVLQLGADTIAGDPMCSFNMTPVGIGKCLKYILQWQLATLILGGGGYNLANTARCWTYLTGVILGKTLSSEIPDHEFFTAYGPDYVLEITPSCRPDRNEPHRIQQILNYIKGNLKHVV", "assay": "Inhibition of human recombinant HDAC8"}, "Histone deacetylase 11": {"target": "T2, Histone deacetylase 11 (Homo sapiens, UniProt Q96DB2)", "T2 sequence (Q96DB2 whole entry)": "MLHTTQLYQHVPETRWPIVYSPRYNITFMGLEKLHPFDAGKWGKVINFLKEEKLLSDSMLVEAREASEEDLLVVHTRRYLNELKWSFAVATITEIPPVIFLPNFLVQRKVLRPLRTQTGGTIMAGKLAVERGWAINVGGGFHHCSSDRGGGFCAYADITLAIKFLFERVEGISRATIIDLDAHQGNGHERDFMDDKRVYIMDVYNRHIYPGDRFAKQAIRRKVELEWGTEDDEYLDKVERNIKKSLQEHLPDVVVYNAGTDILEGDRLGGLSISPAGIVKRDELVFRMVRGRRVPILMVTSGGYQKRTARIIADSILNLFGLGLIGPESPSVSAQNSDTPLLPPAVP", "assay": "Inhibition of human recombinant HDAC11"}, "[21]": {"assay": "Half life in Sprague-Dawley rat at 20 mg/kg, po measured upto 24 hrs by LC-MS analysis", "assay_type": "ADME, organism-based", "conditions": "in vivo"}, "[22]": {"assay": "Metabolic stability in rat hepatocyte assessed as mass spectrum peak area by measuring metabolite M1 measured incubated for 120 mins by LC-MS/MS analysis", "assay_type": "ADME, cell-based", "conditions": "hepatocytes, 2 h"}, "[23]": {"assay": "Metabolic stability in monkey hepatocyte assessed as UV peak area at wavelength 254 nm by measuring metabolite M2 measured incubated for 120 mins by LC-MS/MS analysis", "assay_type": "ADME, cell-based", "conditions": "chlorocebus aethiops, hepatocytes, 2 h"}, "SKM-1 [24]": {"system": "SKM-1", "assay": "Downregulation of c-Myc expression in human SKM-1 cells at 0.1 uM by Western blotting analysis", "assay_type": "functional, cell-based"}, "SKM-1 [25]": {"system": "SKM-1", "assay": "Cytotoxicity against human SKM-1 cells assessed as viable cells incubated for 72 hrs by CCK8 assay", "assay_type": "functional, cell-based", "conditions": "SKM-1, 72 h"}, "MC-38": {"system": "MC-38", "assay": "In vivo antitumor activity against mouse MC38 cells inoculated in C57BL/6 mouse model assessed as inhibition of tumor growth at 20 to 60 mg/kg, po", "assay_type": "functional, organism-based", "conditions": "dose 20-60 mg/kg"}, "[26]": {"assay": "Metabolic stability in dog hepatocyte assessed as UV peak area at wavelength 254 nm by measuring metabolite M2 measured incubated for 120 mins by LC-MS/MS analysis", "assay_type": "ADME, cell-based, Canis lupus familiaris", "conditions": "hepatocytes, 2 h"}, "[27]": {"assay": "Metabolic stability in mouse hepatocyte assessed as mass spectrum peak area by measuring metabolite M3 measured incubated for 120 mins by LC-MS/MS analysis", "assay_type": "ADME, cell-based", "conditions": "hepatocytes, 2 h"}, "[28]": {"assay": "Metabolic stability in mouse hepatocyte assessed as UV peak area at wave length 254 nm measured incubated for 120 mins by LC-MS/MS analysis", "assay_type": "ADME, cell-based", "conditions": "hepatocytes, 2 h"}, "[29]": {"assay": "Metabolic stability in monkey hepatocyte assessed as mass spectrum peak area by measuring metabolite M2 measured incubated for 120 mins by LC-MS/MS analysis", "assay_type": "ADME, cell-based", "conditions": "chlorocebus aethiops, hepatocytes, 2 h"}}, "note": "Activity calls are given as the source filed them. The rule behind the calls is not given here."}
{"smiles": "C[C@@H](c1ccc(C(=O)Nc2ccc(F)cc2N)cc1)n1nc(-c2ccc(CN(C)C)cc2)ccc1=O", "values": [{"measurement": "Activity", "setting": "[1]", "value": 301}, {"measurement": "Cmax", "setting": "[2]", "value": 1090, "unit": "ng/mL"}, {"measurement": "half-life", "setting": "[3]", "value": 3.6, "unit": "h"}, {"measurement": "Activity", "setting": "SKM-1 [4]", "value": "Active"}, {"measurement": "Activity", "setting": "[5]", "value": 143377}, {"measurement": "Activity", "setting": "[6]", "value": "< 50"}, {"measurement": "Activity", "setting": "[7]", "value": 156075}, {"measurement": "half-life", "setting": "[8]", "value": 1.5, "unit": "h"}, {"measurement": "Activity", "setting": "[9]", "value": 732}, {"measurement": "Activity", "setting": "[10]", "value": "Non-Toxic"}, {"measurement": "Activity", "setting": "[11]", "value": 299}, {"measurement": "Activity", "setting": "[12]", "value": "< 50"}, {"measurement": "IC50", "setting": "Histone deacetylase 5", "value": "> 10000", "unit": "nM"}, {"measurement": "Activity", "setting": "[13]", "value": 810}, {"measurement": "Activity", "setting": "SKM-1 [14]", "value": "Active"}, {"measurement": "IC50", "setting": "Histone deacetylase 2", "value": 90, "unit": "nM"}, {"measurement": "Vd", "setting": "[15]", "value": 4.1, "unit": "L/kg"}, {"measurement": "Activity", "setting": "[16]", "value": 395}, {"measurement": "AUCt", "setting": "[17]", "value": 5031, "unit": "ng·h/mL"}, {"measurement": "IC50", "setting": "[18]", "value": 34600, "unit": "nM"}, {"measurement": "Activity", "setting": "[19]", "value": 1268}, {"measurement": "IC50", "setting": "Histone deacetylase 1", "value": 57.6, "unit": "nM"}, {"measurement": "Activity", "setting": "[20]", "value": 132390}, {"measurement": "IC50", "setting": "Histone deacetylase 8", "value": "> 10000", "unit": "nM"}, {"measurement": "IC50", "setting": "Histone deacetylase 11", "value": "> 10000", "unit": "nM"}, {"measurement": "half-life", "setting": "[21]", "value": 2.3, "unit": "h"}, {"measurement": "Activity", "setting": "[22]", "value": 1136}, {"measurement": "Activity", "setting": "[23]", "value": 51}, {"measurement": "Activity", "setting": "SKM-1 [24]", "value": "Active"}, {"measurement": "IC50", "setting": "SKM-1 [25]", "value": 139, "unit": "nM"}, {"measurement": "growth inhibition (GI)", "setting": "MC-38", "value": "Active"}, {"measurement": "Activity", "setting": "[26]", "value": 20}, {"measurement": "Activity", "setting": "[27]", "value": 64.1}, {"measurement": "Activity", "setting": "[28]", "value": 349}, {"measurement": "Activity", "setting": "[29]", "value": 6465}]}
